Source: patent publication US20240327427A1, “NEW COMPOUNDS FOR THE TREATMENT OF ALZHEIMER'S DISEASE” (Icahn School of Medicine at Mount Sinai, priority 2020, published 2024)

Columns and labels:
Aβ42 = Aβ42 levels in fly brains (western blot); type: in vivo, Drosophila; settings: Aβ42 flies, fed
Method: Aβ42 flies were treated with 0, 10, or 50 μM of NCH-51 during aging to examine its effects on neurodegeneration. […] Western blotting was performed as described previously. To detect human Aβ42, ten fly heads for each genotype were homogenized in Tris-Glycine SDS sample buffer, and the same amount of the lysate was loaded to 18% Tris-Glycine gels and transferred to nitrocellulose membrane. The membranes were boiled in PBS for 3 min, blocked with 5% nonfat dry milk, blotted with the anti-AD 6E10 antibody (Signet, Covance), incubated with appropriate secondary antibody and developed using ECL Western Blotting Detection Reagents (GE Healthcare Life Sciences). The membranes were also probed with anti-tubulin (Sigma-Aldrich) as the loading control in each experiment. To detect human tau, ten fly heads for each genotype were homogenized in Tris-Glycine SDS sample buffer, and the same amount of the lysate was loaded to each lane of 10% Tris-Glycine gels and transferred to nitrocellulose membrane. The membranes were blocked with 5% nonfat dry milk, blotted with the antibodies described below, incubated with the appropriate secondary antibody and developed using ECL Prime Western Blotting Detection Reagent (GE Healthcare Life Sciences). […] Imaging was performed with ImageQuant LAS 4000 (GE Healthcare Life Sciences), and the signal intensity was quantified using Image J (NIH).

ATP6V1A = ATP6V1A mRNA expression in drug-treated NPCs (LINCS profiles); type: cell-based, human; settings: drug-treated vs DMSO-treated, LINCS data
Source text: Compounds were screened for drugs that can rescue the in vitro and in vivo phenotypes arising from ATP6V1A deficits. Using their drug repositioning tool, Ensemble of Multiple Drug Repositioning Approaches (EMUDRA) (Zhou et al., 2018b), the inventors matched the disease signature from the BM36-PHG region and the signatures of 3,629 drugs tested in the NPCs in the Library of Integrated Network-based Cellular Signatures (LINCS) project (FIG. 6A). The inventors further prioritized candidate drugs by their potential to increase the mRNA expression of ATP6V1A in the NPCs.
To identify existing drugs that can restore the molecular expression change in the LOAD brains, the inventors performed a drug repositioning analysis using EMUDRA, which provides a novel computational algorithm to match disease signatures and drug-induced signatures. The inventors downloaded drug-treated gene expression profiles (level 3 data of quantile-normalized and log 2 transformed expression levels from human iPSC-derived neural progenitor cells (NPCs) from the Library of Integrated Network-Based Cellular Signatures (LINCS) program. After removing probes sets mapping to multiple genes or without known gene annotation, the remaining data were adjusted for batch effects using linear regression. The mean expression level of multiple probe sets that match to the same gene was used as the expression level for that gene. For each drug, the applied drug signature was the transcriptome-wide expression difference between drug-treated and DMSO-treated gene expression profiles. The inventors matched each of the drug signatures to the LOAD signature using EMUDRA to find drugs that could reverse the LOAD signature. […] In total, 3,629 drug signatures were analyzed and ranked. The inventors further prioritized the top-ranked drugs that can increase ATP6V1A mRNA expression in the NPCs.

[1] = system: SYN1, SCL17A7/VGLUT, PSD95, HOMER1; assay: Synaptic marker mRNA and protein levels in iNs; type: cell-based, human
Method: Quantitative reverse transcription PCR (qRT-PCR) was performed as previously described. Specifically, cell cultures were harvested with Trizol and total RNA extraction was carried out following the manufacturer's instructions. Quantitative transcript analysis was performed using a QuantStudio 7 Flex Real-Time PCR System with the Power SYBR Green RNA-to-Ct Real-Time qPCR Kit (all Thermo Fisher Scientific). Total RNA template (25 ng per reaction) was added to the PCR mix, including primers listed below. qPCR conditions were as follows; 48° C. for 30 min, 95° C. for 10 min followed by 40 cycles (95° C. for 15 s, 60° C. for 60 s). All qPCR data is collected from at least 3 independent biological replicates of one experiment. Data analyses were performed using GraphPad PRISM 6 software.
Images were captured and quantified using the Odyssey® Imaging Systems (LI-COR. Inc.).

[2] = system: 16 genes related to synaptic biology; assay: mRNA levels of key regulator genes of neuronal activity in Aβ42 fly brains; type: in vivo, Drosophila
Method: Aβ42 flies were treated with 0, 10, or 50 μM of NCH-51 during aging to examine its effects on neurodegeneration. […] More than 25 flies for each genotype were collected and frozen. Heads were mechanically isolated, and total RNA was extracted using TRIzol Reagent (Thermo Fisher Scientific) according to the manufacturer's protocol with an additional centrifugation step (16,000×g for 10 min) to remove cuticle membranes prior to the addition of chloroform. Total RNA was reverse-transcribed using PrimeScript RT-PCR kit (TaKaRa Bio), and qRT-PCR was performed using Thunderbird SYBR qPCR Mix (Toyobo) on a CFX96 real time PCR detection system (Bio-Rad Laboratories). The average threshold cycle value was calculated from at least three replicates per sample. Expression of genes of interest was standardized relative to GAPDH1. Primer sequences are provided below. Flies were fed with the food containing 10 μM or 50 μM NCH51 or vehicle (final concentration 0.02% dimethyl sulfoxide) from the day after eclosion. These food vials were changed every 3-4 days.

## CC(C)C(=O)SCCCCCCC(=O)Nc1nc(-c2ccccc2)cs1 [NCH-51]
Aβ42
  Aβ42 levels in fly brains: did not affect
ATP6V1A
  ATP6V1A (log2FC): 0.71 log2FC
[1]; 3 μM, 24-hr, iNs, P<0.001
  SCL17A7 mRNA level: dramatically elevates
  presynaptic SYN1 mRNA level: dramatically elevates
[1]; ATP6V1A KD iNs or isogenic controls
  HOMER1 levels: increased the HOMER1 levels
[1]; iNs
  postsynaptic PSD95: no effect
[1]; iNs, 3 μM, P<0.01
  SYN1 protein level: similarly increased
[1]; iNs, 3 μM, P<0.05
  VGLUT protein level: similarly increased
[2]; dose-dependent
  mRNA levels of synaptic biology related genes: increased mRNA levels of synaptic biology related genes
[2]; fed
  number of key regulator genes of neuronal activity with increased mRNA levels: 9 out of 16
